Assays:
[1] = Ratio of binding affinity to rat serum albumin assessed as fraction unbound to binding affinity to human serum albumin assessed as fraction unbound; assay type: ADME; conditions: isolated protein
serum albumin [2] = target: T1, serum albumin (Rattus norvegicus, UniProt P02770); experiment: Binding affinity to rat serum albumin at 30 uM by HPLC analysis; assay type: ADME; conditions: read-out: PB (converted)
serum albumin [3] = target: T1, serum albumin; experiment: Binding affinity to rat serum albumin assessed as fraction unbound at 30 uM by HPLC analysis; assay type: ADME
serum albumin [4] = target: T2, serum albumin (Homo sapiens, UniProt P02768); experiment: Binding affinity to human serum albumin assessed as fraction unbound at 30 uM by HPLC analysis; assay type: ADME
serum albumin [5] = target: T2, serum albumin; experiment: Binding affinity to human serum albumin at 30 uM by HPLC analysis; assay type: ADME; conditions: read-out: PB (converted)
Pelophylax lessonae [6] = experiment: Steady state inactivation of voltage-gated sodium channel in Rana esculenta ventral branch of semitendinosus muscle at 100 uM assessed as change in potential at which 50% of sodium channel were inactivated measured at 1000 ms prepulse by Hille-Campbell vaseline gap voltage-clamp recording; assay type: tissue-based
Pelophylax lessonae [7] = experiment: Ratio of IC50 for tonic block of voltage-gated sodium channel in Rana esculenta ventral branch of semitendinosus muscle to IC50 for use-dependent block of voltage-gated sodium channel in Rana esculenta ventral branch of semitendinosus muscle at 10 Hz frequency; assay type: tissue-based
Pelophylax lessonae [8] = experiment: Ratio of IC50 for tonic block of voltage-gated sodium channel in Rana esculenta ventral branch of semitendinosus muscle to IC50 for use-dependent block of voltage-gated sodium channel in Rana esculenta ventral branch of semitendinosus muscle at 2 Hz frequency; assay type: tissue-based
[9] = Inhibition of voltage-gated sodium channel in Rana esculenta ventral branch of semitendinosus muscle assessed as tonic block by measuring reduction of maximal peak sodium transient at holding potential -100 mV by Hille-Campbell vaseline gap voltage-clamp recording; assay type: tissue-based, Pelophylax lessonae
[10] = Inhibition of voltage-gated sodium channel in Rana esculenta ventral branch of semitendinosus muscle assessed as tonic block at 10 Hz stimulation frequency by measuring reduction of maximal peak sodium transient by Hille-Campbell vaseline gap voltage-clamp recording; assay type: tissue-based, Pelophylax lessonae
[11] = Inhibition of voltage-gated sodium channel in Rana esculenta ventral branch of semitendinosus muscle at -70 mV of holding potential by Hille-Campbell vaseline gap voltage-clamp recording; assay type: tissue-based, Pelophylax lessonae
[12] = Inhibition of voltage-gated sodium channel in Rana esculenta ventral branch of semitendinosus muscle assessed as use-dependent block at 10 Hz frequency by Hille-Campbell vaseline gap voltage-clamp recording; assay type: tissue-based, Pelophylax lessonae
[13] = Inhibition of voltage-gated sodium channel in Rana esculenta ventral branch of semitendinosus muscle at -140 mV of holding potential by Hille-Campbell vaseline gap voltage-clamp recording; assay type: tissue-based, Pelophylax lessonae
[14] = Inhibition of voltage-gated sodium channel in Rana esculenta ventral branch of semitendinosus muscle assessed as use-dependent block at 2 Hz stimulation frequency by Hille-Campbell vaseline gap voltage-clamp recording; assay type: tissue-based, Pelophylax lessonae
Pelophylax lessonae [15] = experiment: Inhibition of voltage-gated sodium channel in Rana esculenta ventral branch of semitendinosus muscle assessed as tonic block by measuring reduction of maximal peak sodium transient at 300 uM at 10 Hz stimulation frequency by Hille-Campbell vaseline gap voltage-clamp recording; assay type: tissue-based
Pelophylax lessonae [16] = experiment: Inhibition of voltage-gated sodium channel in Rana esculenta ventral branch of semitendinosus muscle assessed as tonic block by measuring reduction of maximal peak sodium transient at 500 uM at 10 Hz stimulation frequency by Hille-Campbell vaseline gap voltage-clamp recording; assay type: tissue-based
serum albumin [17] = target: T2, serum albumin; experiment: Binding affinity to human serum albumin; assay type: ADME; conditions: read-out: PB (converted)

T2 sequence (P02768 whole entry): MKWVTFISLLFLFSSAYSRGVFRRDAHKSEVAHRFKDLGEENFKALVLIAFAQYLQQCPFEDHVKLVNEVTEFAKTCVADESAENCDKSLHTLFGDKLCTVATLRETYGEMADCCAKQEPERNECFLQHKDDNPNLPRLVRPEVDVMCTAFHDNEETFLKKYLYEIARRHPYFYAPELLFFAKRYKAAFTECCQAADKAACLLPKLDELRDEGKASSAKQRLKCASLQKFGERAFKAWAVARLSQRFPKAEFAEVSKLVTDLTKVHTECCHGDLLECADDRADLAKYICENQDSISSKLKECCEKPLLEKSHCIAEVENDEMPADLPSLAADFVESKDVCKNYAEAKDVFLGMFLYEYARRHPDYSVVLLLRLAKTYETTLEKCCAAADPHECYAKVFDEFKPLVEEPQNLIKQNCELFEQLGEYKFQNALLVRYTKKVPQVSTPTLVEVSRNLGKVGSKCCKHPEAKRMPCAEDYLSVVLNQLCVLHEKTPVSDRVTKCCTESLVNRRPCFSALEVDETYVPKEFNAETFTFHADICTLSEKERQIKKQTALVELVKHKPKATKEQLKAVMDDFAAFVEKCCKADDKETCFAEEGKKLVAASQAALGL
T1 sequence (P02770 whole entry): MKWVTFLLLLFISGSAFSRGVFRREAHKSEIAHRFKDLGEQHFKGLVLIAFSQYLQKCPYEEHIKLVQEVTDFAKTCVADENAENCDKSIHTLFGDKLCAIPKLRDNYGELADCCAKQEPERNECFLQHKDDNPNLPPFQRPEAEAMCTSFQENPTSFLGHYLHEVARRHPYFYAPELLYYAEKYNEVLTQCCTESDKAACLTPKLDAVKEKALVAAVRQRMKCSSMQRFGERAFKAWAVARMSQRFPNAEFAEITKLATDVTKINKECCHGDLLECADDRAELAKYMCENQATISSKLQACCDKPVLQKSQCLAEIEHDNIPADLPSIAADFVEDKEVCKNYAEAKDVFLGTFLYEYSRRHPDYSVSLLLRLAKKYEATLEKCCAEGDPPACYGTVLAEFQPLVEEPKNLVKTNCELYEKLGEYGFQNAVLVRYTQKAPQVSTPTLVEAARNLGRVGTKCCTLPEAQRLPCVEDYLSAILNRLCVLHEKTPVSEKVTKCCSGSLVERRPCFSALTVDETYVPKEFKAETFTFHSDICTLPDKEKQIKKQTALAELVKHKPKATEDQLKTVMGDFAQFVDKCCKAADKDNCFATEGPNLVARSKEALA

| SMILES | Ratio [1] | fraction unbound at 30 µM (serum albumin [2]) | fraction unbound at 30 µM (serum albumin [3]) | fraction unbound at 30 µM (serum albumin [4]) | fraction unbound at 30 µM (serum albumin [5]) | Activity (Pelophylax lessonae [6]) [mV] | Ratio IC50 (Pelophylax lessonae [7]) | Ratio IC50 (Pelophylax lessonae [8]) | IC50 [9] [µM] | pIC50 [10] | IC50 [11] [µM] | IC50 [12] [µM] | IC50 [13] [µM] | IC50 [14] [µM] | inhibition (Pelophylax lessonae [15]) [%] | inhibition (Pelophylax lessonae [16]) [%] | fraction unbound (serum albumin [17]) |
| --- | --- | --- | --- | --- | --- | --- | --- | --- | --- | --- | --- | --- | --- | --- | --- | --- | --- |
| Cc1cccc(C)c1NC(=O)C1CCN(Cc2ccccc2)C1 (centres undefined) | 2.27 | 0.064 | 0.0644 | 0.0284 | 0.029 | – | – | – | – | – | – | – | – | – | – | – | – |
| Cc1cccc(C)c1NC(=O)CC(C)N (racemic) | – | – | – | – | – | 4.8 | 8.6 | 5.2 | 420 | 4.31 | 54 | 48.8 | 603 | 81.2 | 35.6 | – | – |
| Cc1cccc(C)c1NC(=O)CC(C)NCc1ccccc1 (racemic) | – | 0.121 | 0.122 | 0.0474 | 0.047 | – | – | – | – | – | – | – | – | – | – | – | – |
| Cc1cccc(C)c1NC(=O)CC(C)NCc1cccc2ccccc12 (racemic) | – | 0.04 | 0.04 | 0.033 | 0.033 | – | – | – | – | – | – | – | – | – | – | – | – |
| Cc1cccc(C)c1NC(=O)C(C)N (racemic) [TOCAINIDE] | 0.86 | 0.64 | 0.64 | 0.746 | 0.746 | – | 2.1 | 1.5 | 523 | – | 254 | 248 | 985 | 350 | – | 42.6 | – |
| O=C1CN=C(c2ccccc2Cl)c2cc([N+](=O)[O-])ccc2N1 [CLONAZEPAM] | – | 0.117 | – | – | 0.143 | – | – | – | – | – | – | – | – | – | – | – | 0.14 |
